Data: US20240002393A1, “SUBSTITUTED BENZO[f][l ,2,4JTRIAZOL0[4,3-a][l ,4J[…] GABA A GAMMA! POSITIVE ALLOSTERIC MODULATORS” (Hoffmann-La Roche Inc., priority 2020, published 2024)
“And” between values parts separate entries of the source, which are not always exact repeats. Identical values can stand only once.

Assays:
[1] = biological target: human GABAA α1β2γ1 receptor (Homo sapiens (Human), UniProt P14867+Q8N1C3); test: Radioligand binding assay, [3H]RO7239181 competition, γ1-containing GABAA subtypes; settings: HEK293F membranes, [3H]RO7239181 20-30 nM, mean of two determinations
Method: (§1) The affinity of compounds at GABAA γ1 subunit-containing receptors was measured by competition for [^3H]RO7239181 (67.3 Ci/mmol; Roche) binding to membranes from HEK293F cells (ThermoFisher R79007) expressing human (transiently transfected) receptors of composition α5β2γ1, α2β2γ1, α1β2γ1.
(§2) Harvested pellets from HEK293F cells expressing the different GABAA receptor subtypes were resuspended in Mannitol Buffer pH 7.2-7.4 (Mannitol 0.29M, Triethylamine 10 mM, Acetic acid 10 mM, EDTA 1 mM plus protease inhibitors (20 tablets Complete, Roche Diagnostics Cat. No. 05 056 489 001 per liter)), washed two times and then resuspended at 1:10 to 1:15 dilution in the same buffer. Cell disruption was performed by stirring the suspension in a Parr vessel #4637 at 435 psi for 15 minutes, and then the suspensions were centrifuged at 1000×g for 15 minutes at 4° C. (Beckman Avanti J-HC; rotor JS)-4.2). The supernatant (S1) was transferred in a 21 Schott flask and the pellet (P1) was resuspended with Mannitol Buffer up to 175 ml. The resuspended pellet was transferred into a 250 ml Corning centrifugal beaker and centrifuged at 1500×g for 10 minutes at 4° C. (Beckman Avanti J-HC; rotor JS)-4.2). The supernatant (S1) was then transferred in the 21 Schott flask and the pellet was discarded. The supernatants (S1) were centrifuged in 500 ml Beckman polypropylene centrifugal beaker at 15,000×g for 30 minutes at 4° C. (Beckman Avanti J-20 XP; rotor JLA-10.500). The pellet (P2) was resuspended with Mannitol Buffer 1:1 and frozen at −80° C. The supernatant (S2) was centrifuged in 100 ml Beckman polypropylene centrifugal tubes at 48000×g for 50 minutes at […] (Beckman Avanti J-20 XP; rotor JA-18). The supernatant (S3) was discarded and the pellet (P3) was resuspended with 1:1 Mannitol Buffer. The P2 and P3 protein concentration was determined with the BIORAD Standard assay method with bovine serum albumin as standard and measured on the NANO-Drop 1000. The membrane suspension was aliquots (500 μl per tube) and stored at −80° C. until required.
(§3) Membrane homogenates were resuspended and polytronised (Polytron PT1200E Kinematica AG) in Potassium Phosphate 10 mM, KCl 100 mM binding buffer at pH 7.4 to a final assay concentration determined with a previous experiment.
(§4) Assays were incubated to equilibrium for 1 hour at 4° C. and then, membranes were filtered onto unifilter (96-well white microplate with bonded GF/C filters preincubated 20-50 minutes in 0.3% Polyethylenimine) with a Filtermate 196 harvester (Packard BioScience) and washed 4 times with cold Potassium Phosphate 10 mM pH 7.4, KCl 100 mM binding buffer. After drying, filter-retained radioactivity was detected by liquid scintillation counting. K, values were calculated using Excel-Fit (Microsoft) and are the means of two determinations.

[2] = biological target: human GABAA α2β2γ1 receptor (Homo sapiens (Human), UniProt P47869+Q8N1C3); test: as above; settings: for Ki: HEK293F membranes, [3H]RO7239181 20-30 nM, mean of two determinations, read-out: Ki h-GABAA α2β2γ1; for γ2/γ1 Selectivity Ratio: Ki α1β3γ2 (nM)/Ki α2β2γ1 (nM); for LogSel: Log[Ki α1β3γ2 (nM)/Ki α2β2γ1 (nM)]
Method: as §1, §2, §3, §4

h-GABA-A α2β2γ1 = h-GABA-A α2β2γ1 (Homo sapiens (Human), UniProt P47869+Q8N1C3); test: Two-electrode voltage clamp electrophysiology in Xenopus oocytes expressing GABAA receptors; assay type: cell-based; settings: for Efficacy (GABA)%: % modulation of GABA EC20 = 100*(Fold increase−1), compound at 30-fold Ki; for Fold increase h-GABA-A α2β2γ1 oocyte @ 30-fold Ki: GABA EC20, test compound at about 30-fold its Ki α2β2γ1, at least 3 oocytes
Method: Xenopus laevis oocytes at maturation stages V-VI were used for the expression of cloned mRNA encoding GABAA receptor subunits. Oocytes ready for RNA micro-injection were bought from Ecocyte, Castrop-Rauxel, Germany and stored in modified Barth's medium (composition in mM: NaCl 88, KCl 1, NaHCO3 2.4, HEPES 10, MgSO4 0.82, CaNO3 0.33, CaCl2 0.33, pH=7.5) at 20° C. until the experiment.
Oocytes were plated in 96-well plates for microinjection using the Roboinject automated instrument (MultiChannelSystems, Reutlingen, Germany). Approximately 50 nL of an aqueous solution containing the RNA transcripts for the subunits of the desired GABAA receptor subtype was injected into each oocyte. […] Oocytes were kept in modified Barth's medium (composition in mM: NaCl 88, KCl 1, NaHCO3 […], HEPES 10, MgSO4 0.82, CaNO3 0.33, CaCl2 0.33, pH=7.5) at 20° C. until the experiment.
Electrophysiological experiments were performed using the Roboocyte instrument (MultiChannelSystems, Reutlingen, Germany) on days 3 to 5 after the micro-injection of mRNA. During the experiment the oocytes were constantly superfused by a solution containing (in mM) NaCl 90, KCl 1, HEPES 5, MgCl2 1 CaCl2 1 (pH 7.4). Oocytes were impaled by two glass microelectrodes (resistance: 0.5-0.8 MΩ) which were filled with a solution containing KCl 1M+K-acetate 1.5 M and voltage-clamped to −80 mV. The recordings were performed at room temperature using the Roboocyte two-electrode voltage clamp system (Multichannelsystem). After an initial equilibration period of 1.5 min GABA was added for 1.5 min at a concentration evoking approximately 20% of a maximal current response (EC20). After another rest interval of 2.5 min GABA was again added evoking a response of similar amplitude and shape. […] Current traces were recorded at a digitization rate of 10 Hz during and shortly before and after the GABA application.
Each compound and concentration was tested on at least 3 oocytes. Different oocytes were used for different compound concentrations.
For the analysis, the digitized current traces of the first and second GABA response were superimposed and, if necessary, rescaled to equal maximal amplitudes. The ratio between the two responses during the time interval of test compound application was calculated point by point. The extremum of the resulting “ratio trace” was taken as the efficacy (“Fold increase”) of the compound expressed as “% modulation of GABA EC20” (100*(Fold increase−1)).

Row | SMILES | Ki [1] | Ki [2] | γ2/γ1 Selectivity Ratio [2] | LogSel [2] | Efficacy (GABA)% (h-GABA-A α2β2γ1) | Fold increase h-GABA-A α2β2γ1 oocyte @ 30-fold Ki (h-GABA-A α2β2γ1)
1 | C[C@@H]1N=C(c2ccccc2F)c2c(ccc(Br)c2Cl)-n2cnnc21 [Example 30, (4S)-8-bromo-7-chloro-6-(2-fluorophenyl)-4-methyl-4H-[1,2,4]triazolo[4,3-a][1,4]benzodiazepine] | 65 nM | 43.6 nM | 13.3 | 1.13 and 1.1 | 57% | 1.57
2 | OC1N=C(c2c(F)cccc2F)c2c(ccc(Br)c2Cl)-n2cnnc21 (centres unmarked) [Example 31, 8-bromo-7-chloro-6-(2,6-difluorophenyl)-4H-[1,2,4]triazolo[4,3-a][1,4]benzodiazepin-4-ol] | 39.7 nM | 41 nM | 17.3 | 1.24 | 74% | 1.74
3 | C[C@@H]1N=C(c2ccccc2F)c2c(ccc(Br)c2Cl)-n2c(-c3cccnn3)nnc21 [Example 32, (4S)-8-bromo-7-chloro-6-(2-fluorophenyl)-4-methyl-1-pyridazin-3-yl-4H-[1,2,4]triazolo[4,3-a][1,4]benzodiazepine] | 33.3 nM | 10.5 nM | 98.2 | 1.99 | 105% | 2.05
4 | OC1N=C(c2ccccc2F)c2c(ccc(Br)c2Cl)-n2c(-c3cccnn3)nnc21 (centres unmarked) [Example 35, 8-bromo-7-chloro-6-(2-fluorophenyl)-1-pyridazin-3-yl-4H-[1,2,4]triazolo[4,3-a][1,4]benzodiazepin-4-ol] | 640 nM | 78.6 nM | 35.7 | 1.55 | 108% | 2.08
5 | C[C@@H]1N=C(c2c(F)cccc2F)c2c(ccc(Br)c2Cl)-n2cnnc21 [Example 51, (4S)-8-bromo-7-chloro-6-(2,6-difluorophenyl)-4-methyl-4H-[1,2,4]triazolo[4,3-a][1,4]benzodiazepine] | 9 nM | 4.9 nM | 79.5 and 80 | 1.9 | 56% | 1.56
6 | C[C@@H]1N=C(c2c(F)cccc2F)c2c(ccc(Cl)c2Cl)-n2c(-c3ccncn3)nnc21 [Example 52, (4S)-7,8-dichloro-6-(2,6-difluorophenyl)-4-methyl-1-pyrimidin-4-yl-4H-[1,2,4]triazolo[4,3-a][1,4]benzodiazepine] | 10.2 nM | 5.7 nM | 112.4 | 2.05 | 100% | 2.00
7 | C[C@@H]1N=C(c2c(F)cccc2F)c2c(ccc(Cl)c2Cl)-n2c(-c3cnn(C)c3)nnc21 [Example 53, (4S)-7,8-dichloro-6-(2,6-difluorophenyl)-4-methyl-1-(1-methylpyrazol-4-yl)-4H-[1,2,4]triazolo[4,3-a][1,4]benzodiazepine] | 14.4 nM | 3 nM | 82.0 | 1.91 | 32% | 1.32
8 | C[C@@H]1N=C(c2c(F)cccc2F)c2c(ccc(Cl)c2Cl)-n2c(-c3cccnn3)nnc21 [Example 56, (4S)-7,8-dichloro-6-(2,6-difluorophenyl)-4-methyl-1-pyridazin-3-yl-4H-[1,2,4]triazolo[4,3-a][1,4]benzodiazepine] | 3.8 nM | 4.6 nM | 186.8 | 2.27 | 78% | 1.78
9 | C[C@@H]1N=C(c2ncccc2F)c2c(ccc(Cl)c2Cl)-n2c(-c3cccnn3)nnc21 [Example 63, (4S)-7,8-dichloro-6-(3-fluoro-2-pyridyl)-4-methyl-1-pyridazin-3-yl-4H-[1,2,4]triazolo[4,3-a][1,4]benzodiazepine] | 333 nM | 39.4 nM | 103.5 | 2.02 | 891% | 9.91
10 | COC[C@@H]1N=C(c2c(F)cccc2F)c2c(ccc(C(F)(F)F)c2Cl)-n2c(C)nnc21 [Example 105, (4R)-7-chloro-6-(2,6-difluorophenyl)-4-(methoxymethyl)-1-methyl-8-(trifluoromethyl)-4H-[1,2,4]triazolo[4,3-a][1,4]benzodiazepine] |  | 99.3 nM | 73.9 | 1.87 | 75% | 1.75
11 | Cc1nnc2n1-c1ccc(C(F)(F)F)c(Cl)c1C(c1c(F)cccc1F)=N[C@H]2CO [Example 106, [(4R)-7-chloro-6-(2,6-difluorophenyl)-1-methyl-8-(trifluoromethyl)-4H-[1,2,4]triazlo[4,3-a][1,4]benzodiazepin-4-yl]methanol] |  | 71.3 nM | 107.1 | 2.03 | 121% | 2.21
12 | C[C@@H]1N=C(c2c(F)cccc2F)c2c(ccc(C(F)(F)F)c2Cl)-n2cnnc21 [Example 107, (4S)-7-chloro-6-(2,6-difluorophenyl)-4-methyl-8-(trifluoromethyl)-4H-[1,2,4]triazolo[4,3-a][1,4]benzodiazepine] |  | 68.3 nM | 51.8 | 1.71 | 147% | 2.47
13 | CCc1ccc2c(c1Cl)C(c1c(F)cccc1F)=N[C@@H](C)c1nnc(C)n1-2 [Example 109, (4S)-7-chloro-6-(2,6-difluorophenyl)-8-ethyl-1,4-dimethyl-4H-[1,2,4]triazolo[4,3-a][1,4]benzodiazepine] |  | 65.8 nM | 11.5 | 1.06 | 230% | 3.30
